The results in this text go back to ChEMBL document CHEMBL3217678 (Medchemcomm, 2011).

The target in one series is 26S proteasome. The experiment in a line: Inhibition of human 20S proteasome using Suc-LLVY-AMC as substrate preincubated for 30 mins followed by substrate addition measured after 90 mins by fluorescence assay. It is filed as protein-complex assay.
Series [1] deals with T1, 26S proteasome (Homo sapiens) (UniProt Q99460+P49721+P20618+P28074+P28062+P28065+P28072+O00487+P25786+P25787+P25788+P25789+P28066+P60900+O14818+Q8TAA3+P40306+A5LHX3+P49720+P28070+Q99436+Q16186+P35998+P62191+P43686+P62333+P17980+P62195+Q13200+O43242+O00232+O00231+Q15008+P51665+Q9UNM6+P55036+P48556+P60896). The experiment in a line: Inhibition of human 20S proteasome using Suc-LLVY-AMC as substrate assessed as decrease in enzyme velocity. It is filed as protein-complex assay.

In series [2] the target is T1, 26S proteasome (Homo sapiens). The experiment in a line: Inhibition of 20S proteasome in human HeLa cells expressing GFP-tagged ubiquitin G76V mutant at 23 uM after 16 hrs by fluorescence assay. It is filed as cell-based.
For series [3] the target is unchanged. The note with it: HeLa, 26 nM.
Description: Inhibition of 20S proteasome in human HeLa cells expressing GFP-tagged ubiquitin G76V mutant at 26 nM after 16 hrs by fluorescence assay
Series [4] can be described thus: Half life in 100 fold molar excess of deuterated water in DMSO at 37 degC by [1H]-NMR analysis. It is filed as physicochemical.

pIC50: −log10 of the molar value. Calls of active or inactive are those of the source.

The term pIC50 denotes the IC50 on a negative log10 scale, so that one unit is a factor of ten. Lower therefore signals a large IC50. One may read the half-life as the time needed for the level to fall by half in the phase considered. Higher therefore signals slow loss.

In turn, `CC(C)C[C@@H](NC(=O)[C@H](Cc1ccccc1)NC(=O)c1cnccn1)c1nsc(=O)o1` had a pIC50 at 26S proteasome of 3.65. For the same molecule, the inhibition result in series [1] is “Dose-dependent effect”. Besides, the inhibition entry in series [2] was “inactive”.
Turning to `CC(C)C[C@H](NC(=O)[C@H](Cc1ccccc1)NC(=O)c1cnccn1)B(O)O` [BORTEZOMIB], the inhibition result in series [3] is “Active”.
Molecule `COc1cccc(-c2nsc(=O)o2)c1` gave a half-life in series [4] of 20 h.
Turning to `CC(C)C[C@H](NC(=O)[C@H](Cc1ccccc1)NC(=O)c1cnccn1)c1nsc(=O)o1`, the pIC50 against 26S proteasome is 3.97. The inhibition result in series [1] is “Dose-dependent effect”. The inhibition entry in series [2] was “Active”. The molecule also had a half-life in series [4] of 156 h.
